Entries after “also recorded” stand apart in the source; their conditions may differ.
How the values were obtained:
[1] = tested on: noninfected Sf9 insect cells; experiment: FACScan reactivity of MAb on noninfected Sf9 insect cells; format: binding
Description: For the immunization stage, mice were injected twice, by the subcutaneous route, with 8 μg of recombinant IGF-IR. Three days before the fusion of the cells of the […] with the cells of the murine myeloma Sp2OAg14, the mice were stimulated by an intravenous injection of 3 μg of the recombinant receptor. Fourteen days after the fusion, the supernatants of hybridomas were screened by ELISA, on plates sensitized by recombinant IGF-IR. The hybridomas whose supernatants were found positive were conserved and amplified before being tested on the FACS can so as to verify that the antibodies produced were likewise capable of recognizing native IGF-IR. In order to do this, MCF-7 cells from an estrogen-dependent tumor of the breast overexpressing IGF-IR were incubated with each of the culture supernatants produced by the hybridomas selected in ELISA. […] At this stage of the selection, only the hybridomas secreting MAb at the same time recognizing the recombinant receptor and the native receptor were selected and cloned. The MAb secreted by these hybridomas were produced and then purified before being tested on the FACScan, according to the method described above, on […] expressing IGF-IR or IR in order to eliminate the hybridomas at the same time recognizing the two receptors.

MCF-7 cells = experiment: IGF-I induced proliferation of MCF-7 cells (tritiated thymidine incorporation); format: cell-based; conditions: antibody 10 μg/ml; IGF-I 1 to 50 ng/ml
Excerpt: The cell proliferation is estimated by following on the […] the incorporation of tritiated thymidine by the cells. The results are expressed as a proliferative index.

MCF-7 tumor = experiment: Established MCF-7 tumor model in nude mice; format: in vivo; conditions: 250 μg/dose/mouse twice per week, 5 to 6 weeks
Description: The in vivo selection was carried out in an established tumor model. In order to do this, nude mice received a subcutaneous implant of slow-release estrogen, indispensable for the taking of the tumor in a murine model. Twenty-four hours after implantation of the estrogens, 5.10^6 MCF-7 cells are grafted onto the right flank of the mouse subcutaneously. Five days after this cell graft, the tumors are measurable and batches of 6 mice are formed at random. The treatment of the mice is carried out twice per week, during 5 to 6 weeks, at the dose of 250 μg/dose/mouse. In the control group, the mice are treated in the same fashion with a murine control isotype.

[2] = tested on: A549 human NSCLC xenograft; experiment: A549 mutant-KRAS lung xenograft model; format: in vivo, athymic Nude-Foxn1nu mice
Description: Method: 2.5×10^6 A549 human NSCLC cells were injected subcutaneously into the right flank of 4-6 week old athymic Nude-Foxn1nu mice (Charles River Laboratories). When tumors reached a size of ˜300 mm3 (Length*Width*Width*0.5), mice were randomized into treatment groups. […] Animals were weighed and tumor volumes were determined by calipering 2 times per week during the study and at termination. Tumor weight was determined at termination. On day 21 Animals were sacrificed by CO2 asphyxiation. Mice were sacrificed 24 hr after the final dose. At time of sacrifice, the tissue samples were collected and processed.

AKT-P = conditions: treatment of patients, O'Reilly et al 2006; cited from earlier work
A549 cell line = experiment: Soft agar colony formation assay, A549; format: cell-based, human; conditions: Ridaforolimus 10 nM, MK-0646 10 ug/ml, no supplemented IGF
Description: (§1) The colony formation assay was performed in the absence of supplemented IGF. […] No significant correlation of KRAS-status and response to the combination was observed.
(§2) Methods: Soft agar assays were conducted in 96 well glass bottom plates (MatriCal). Cells were seeded at a concentration of 3,000-9,000 cells per well in 100 μl RMPI 1640 supplemented with 14% FBS and 0.3% (w/v) SeaPlaque Agarose (Lonza Rockland, Inc) on top of a bottom layer of consisting of the same culture media supplemented with 0.8% agarose. Compounds were added in 100 μl of culture media supplemented after agarose had solidified. Cells were incubated for 7-14 days before staining overnight with LavaCell (Active Motif). Colonies were quantified using an Isocyte™ laser scanning cytometer. […] The RTK status was evaluated in total protein lysates using the P-RTK arrays (R&D biosciences) as described by the manufacturer. The activating mutations in KRAS were identified from published cancer genome data bases (Sanger).

[3] = tested on: PI3 Kinase signaling pathway in H2122 cells; experiment: Western blot of PI3K pathway signaling in H2122 cells; format: cell-based, human; conditions: 4 hrs
Description: Methods: All the NSCLC cell lines were obtained from ATCC and maintained in RPMI 1640 with 10% fetal bovine serum (Invitrogen). […] Samples were western blotted with indicated total or phosphospecific antibodies followed by a secondary antibody (Cell Signaling Technology, CST) and then incubated with SuperSignal chemiluminescence substrate (Pierce). The blots were then exposed to a Kodak Biomax Light Film. The antibodies against ERK, p-ERK (Thr202/Tyr204), AKT and p-AKT (Ser473), IGF S6K & P-S6K (T389), IRS1 & P-IRS1 (S302) and actin were obtained from CST. Cell cycle analysis was performed in H2122 cells following 24 hr treatment with indicated compounds (see above). One million cells were permiabilized and stained with propidium Iodide (PI) as described by the manufacturer (BD Pharmingen #550825). PI binds to both DNA and RNA, so the latter was removed by digestion with ribonucleases (RNase A). The content of DNA as determined by flow cytometry, can reveal useful information about the cell cycle. Cells in G2 and M phases of the cell cycle have double the DNA content of those in G0 and G1 phases. Cells in S phase have a DNA content lying between these extremes. PI is detected in the orange range of the spectrum using a 562-588 nm band pass filter using a flow cytometer. […] Both compounds act by inhibiting oncogenic signaling through the PI3 Kinase signaling pathway. […]

H2122 cell line = experiment: Soft agar colony formation assay, H2122; format: cell-based, human; conditions: Ridaforolimus 10 nM, MK-0646 10 ug/ml, no supplemented IGF
Description: as §1, §2

H1703 = experiment: Soft agar colony formation assay, H1703; format: cell-based, human; conditions: H1703, low expression of IGF1R
Description: as §1, §2

For “7C10: murine monoclonal antibody secreted by hybridoma deposited at CNCM, IgG1, directed against IGF-IR [Example 7C10]”, the “MFI (Mean fluorescence intensity)” value [1] was 8.6, the “inhibition of proliferation of MCF-7 cells induced by IGF-I” value (MCF-7 cells) was “significantly inhibits” and the “inhibition of tumor growth” value (MCF-7 tumor) was “very significant inhibition”.

In the case of `C#Cc1cccc(Nc2ncnc3cc(OCCOC)c(OCCOC)cc23)c1` [Erlotinib], the tumor growth inhibition ([2]; Erlotinib treated group compared to vehicle) is reported as “No significant growth inhibition; also recorded: did not result in any appreciable tumor growth inhibition”.

In the case of `CO[C@H]1C[C@@H]2CC[C@@H](C)[C@@](O)(O2)C(=O)C(=O)N2CCCC[C@H]2C(=O)O[C@H]([C@H](C)C[C@@H]2CC[C@@H](OCCO)[C@H](OC)C2)CC(=O)[C@H](C)/C=C(\C)[C@@H](O)[C@@H](OC)C(=O)[C@H](C)C[C@H](C)/C=C/C=C/C=C/1C` [RAD001], the “AKT-P level in patients” value (AKT-P) is given as “elevated AKT-P”.

In the case of `CO[C@H]1C[C@@H]2CC[C@@H](C)[C@@](O)(O2)C(=O)C(=O)N2CCCC[C@H]2C(=O)O[C@H]([C@H](C)C[C@@H]2CC[C@@H](OP(C)(C)=O)[C@H](OC)C2)CC(=O)[C@H](C)/C=C(\C)[C@@H](O)[C@@H](OC)C(=O)[C@H](C)C[C@H](C)/C=C/C=C/C=C/1C` [Ridaforolimus, Dimethyl-Phosphinic Acid C-43 Rapamycin Ester], the “soft agar growth inhibition” value (A549 cell line) is reported as “only limited single agent activity”, the “phosphorylation of S6K” value ([3]; Ridaforolimus 10 nM) is reported as “preventing” and the “soft agar growth inhibition” value (H2122 cell line) is reported as “only limited single agent activity”. For the same compound, the Relative tumor growth ([2]; Rida 0.1mpk, 3 weeks, end of treatment) was 35.01%.

In the case of “MK-0646: humanized antibody binding IGF-1R as well as the IR/IGF-1 hybrid receptor”, the “soft agar growth inhibition” value (A549 cell line) is reported as “only limited single agent activity”, the AKT phosphorylation ([3]; MK-0646 10 ng/ml) is reported as “preventing” and the “soft agar growth inhibition” value (H2122 cell line) is reported as “only limited single agent activity”. The “soft agar single agent sensitivity” value (H1703) was “resistant”.
